Counter-ions that a name gives are not always drawn. Like-named read-outs stand apart in the source and are kept apart here.
Legend:
[1] = tested on: MM.1S human multiple myeloma SCID mouse transplanted tumor; assay: Pharmacodynamic test, SCID mouse transplanted tumor model; format: in vivo; conditions: 0.0166 mmol/kg intragastric; for Average tumor relative volume RVT5 / Average tumor relative volume RVT8 / Average tumor relative volume RVT12 / Average tumor relative volume RVT15 / Average tumor relative volume RVT18: twice a week; for Average tumor relative volume RVT5 / Average tumor relative volume RVT8 / Average tumor relative volume RVT12 / Average tumor relative volume RVT15 / Average tumor relative volume RVT18 / Tumor weight (g): X ± SD; for Tumor weight (g): after the 18th day
Protocol: In the experiment, a SCID mouse transplanted tumor model of a human multiple myeloma cell line MM.1S was used. Specific modeling steps were as follows: frozen MM.1S cells were resuscitated and cultured in vitro according to a routine, and the cells were collected in a logarithmic growth phase, and diluted with PBS to form a tumor cell suspension with a concentration of 5×10^7/ml. […] About 1 week to 2 weeks after injection, the mass was palpable in axillary, and in vivo passage was performed when a tumor volume was larger than 500 mm^3. After the mouse was killed by a neck pulling method, a body surface was disinfected, skin was cut open, aseptic operation was performed, a tumor tissue was peeled off from an axillary subcutaneous tissue, a fibrous capsule was removed, and the tumor was taken out. The tumor was washed clean in normal saline, and then cut, and after removing the central necrotic part, the tumor tissue with good growth, reddish color and fish flesh shape was selected, then was cut into 1 mm×1 mm×1 mm small pieces, and placed in normal saline for later use. The cut tumor was placed in a mouth of a No. 18 trocar, iodized cotton was used to disinfect the side of the armpit close to the back of the mouse, and local inoculation was performed. The transplanted tumor used in the test was the 4th generation of in vivo passage. When the tumor volume of most SCID mice of in vivo passage was larger than 100 mm^3, the tumor volume was measured and calculated, and the mice were randomly grouped according to the tumor volume.
The administration mode was intragastric administration through mouth, with an administration volume of 10 ml/kg. The model control group was given the same volume of solvent intragastrically. The mice were all intragastrically administrated through mouth twice a week for a total of 5 times, i.e., the mice were administrated at the 1st, 5th, 8th, 12th and 15th days of the experiment, with a duration of 18 days.
Doses of different tested samples were equimolar, with a specific dose of 0.0166 mmol/kg; and the model control group was only given normal saline. The medicines were 8b and 8l, as well as Ixazomib Citrate (MLN9708) and Ixazomib (MLN2238).
On the 5th, 8th, 12th, 15th and 18th days after administration, a short diameter (a) and a long diameter (b) of the tumor of each mouse were measured with a vernier caliper, and the tumor volume was calculated according to a formula (a^2×b)/2. A relative tumor volume (RTV) was calculated based on the tumor volume measured and calculated, RTV=Vt/V0. V0 was the tumor volume at random grouping (i.e., d0) and Vt was the tumor volume at each measurement (i.e., dn). A relative tumor proliferation rate of an anti-tumor activity evaluation index was calculated according to the following formula: relative tumor proliferation rate T/C (%): […]
(Note: TRTV was a RTV of the treatment group; and CRTV was a RTV of the model control group. An evaluation standard of a curative effect was T/C %≤40%, and the medicine was effective when P<0.05 after statistical treatment).
After weighing and measuring the tumor on the 18th day, all animals were sacrificed, and the tumor was taken and weighed.

[2] = tested on: SD rats; conditions: for maximum tolerance dose: female rats, single intragastric dose
Text: The test was a single-dose toxicity test of SD rats by intragastric administration through mouth.

[3] = tested on: MM.1S (human multiple myeloma cell); assay: In vitro activity test (CCK-8 cell growth inhibition); format: cell-based; conditions: MM1.S, 48 hours incubation, read-out: MM.IS cell GI50 (μM) value
Protocol: (§1) Cells RPMI-8226 (human multiple myeloma cell) and MM.1S (human multiple myeloma cell) were cultured in a RPMI 1640 medium containing 10% fetal bovine serum at 37[…] under 5% CO2 to a logarithmic growth phase. The cells were respectively inoculated into a 96-well culture plate in a quantity of 3×10^4/well. After culturing for 24 hours at 37[…] under 5% CO2, a solvent control DMSO (dimethyl sulfoxide) or a tested compound (the tested compound taken 0.3 μM as an initial concentration, was diluted 3 times each time, and was diluted 5 times in total to obtain 6 concentration gradients) dissolved in the DMSO was added into the cells. The tested compound was incubated with the cells for 48 hours at 37[…] under 5% CO2. A CCK-8 reagent was added into each well, and incubated at 37 °C for 2 hours according to a reagent specification, and an optical density value of each well was read at a wavelength of 450 nm using a spectrophotometer.
(§2) An optical density value of the cells when the medicine acted for 0 hour was set as a Tz value, which represented a value of the cells when the medicine was added. The optical density value of the cells when the solvent control DMSO acted for 48 hours was set as a C value; and the optical density value of the cells when the tested compound acted for 48 hours was set as a Ti value. According to a method proposed by the NIH-NCI (National Institutes of Health-National Cancer Institute) of the United States, a response of the cells to a medicine was calculated: when Ti≥Tz, the response was [(Ti−Tz)/(C−Tz)]×100; and when Ti<Tz, the response was [(Ti−Tz)/Tz]×100. According to the calculation above, a GI50 value (a concentration of the tested compound required when a cell growth inhibition rate was 50%) was calculated by the 4 Parameter Logistic Model in the XLfit software.

[4] = tested on: RPMI-8226 (human multiple myeloma cell); assay: as above; format: cell-based; conditions: 48 hours incubation
Protocol: as §1, §2

[5] = dose 1, 0.001108 mmol/kg single intragastric dose, 6 female rats, 14 days observation
[6] = dose 1, 0.001108 mmol/kg single intragastric dose, 6 male rats, 14 days observation
[7] = dose 2, 0.001662 mmol/kg single intragastric dose, 6 female rats, 14 days observation
[8] = dose 2, 0.001662 mmol/kg single intragastric dose, 6 male rats, 14 days observation
[9] = dose 4, 0.00277 mmol/kg single intragastric dose, 6 female rats, 14 days observation
[10] = dose 4, 0.00277 mmol/kg single intragastric dose, 6 male rats, 14 days observation
[11] = dose 3, 0.002216 mmol/kg single intragastric dose, 6 female rats, 14 days observation
[12] = dose 3, 0.002216 mmol/kg single intragastric dose, 6 male rats, 14 days observation
[13] = female, rat, in vivo, 0.001108 mmol/kg, 14 days
[14] = male, rat, in vivo, 0.001108 mmol/kg, 14 days
[15] = male, rat, in vivo, 0.002216 mmol/kg, 14 days

SMILES	Relative tumor proliferation rate T/C(%) ([1]; 5th day)	Average tumor relative volume RVT5 ([1]; 5th day)	Relative tumor proliferation rate T/C(%) ([1]; 8th day)	Average tumor relative volume RVT8 ([1]; 8th day)	Relative tumor proliferation rate T/C(%) ([1]; 12th day)	Average tumor relative volume RVT12 ([1]; 12th day)	Relative tumor proliferation rate T/C(%) ([1]; 15th day)	Average tumor relative volume RVT15 ([1]; 15th day)	Female Suvival [2, 5]	Male Suvival [2, 6]	Female Death [2, 7]	Female Suvival [2, 7]	Male Death [2, 8]	Male Suvival [2, 8]	Female Death [2, 9]	Female Suvival [2, 9]	Male Death [2, 10]	Male Suvival [2, 10]	GI50 [3] [µM]	GI50 [4] [µM]	also measured
CC(C)C[C@H](NC(=O)CNC(=O)c1cc(Cl)ccc1Cl)B(O)O [Ixazomib (MLN2238), Ixazomib]	87.8^★★ %	1.522 ± 0.273^★★	45.44^★ %	1.238 ± 0.841^★▴▴	22.51^★★ %	0.898 ± 0.749^★★▴▴	10.8^★★ %	0.489 ± 0.343^★★▴▴	6	6	2	4	0	6	6	0	0	6			Relative tumor proliferation rate T/C(%) ([1]; 18th day): 2.43^★★ %; Average tumor relative volume RVT18 ([1]; 18th day): 0.163 ± 0.132^★★▴▴; Tumor weight (g) [1]: 0.374 ± 0.291^★★ g; Female Death [2, 5]: 0; Male Death [2, 6]: 0; maximum tolerance dose [2]: 0.001108 mmol/kg; Female Death ([2]; rat, in vivo): 4; Female Suvival ([2]; rat, in vivo): 2; Male Death ([2]; rat, in vivo): 0; Male Suvival ([2]; rat, in vivo): 6
CC(C)C[C@H](NC(=O)CNC(=O)c1cc(Cl)ccc1Cl)B1OC(=O)C(CC(=O)O)(CC(=O)O)O1 [Ixazomib (MLN9708), Ixazomib Citrate]	82.56^★★ %	1.431 ± 0.452^★★	20.94%	0.571 ± 0.305	6.13^★★ %	0.245 ± 0.123^★★▴▴	4.42^★★ %	0.214 ± 0.133^★★▴▴	6	6	1	5	0	6	6	0	0	6			Relative tumor proliferation rate T/C(%) ([1]; 18th day): 3.06^★★ %; Average tumor relative volume RVT18 ([1]; 18th day): 0.205 ± 00.151^★★▴▴; Tumor weight (g) [1]: 0.284 ± 0.312^★ g; Female Death [2, 5]: 0; Male Death [2, 6]: 0; maximum tolerance dose [2]: 0.001108 mmol/kg; Female Death ([2]; rat, in vivo): 3; Female Suvival ([2]; rat, in vivo): 3; Male Death ([2]; rat, in vivo): 0; Male Suvival ([2]; rat, in vivo): 6
CC(C)C[C@H](NC(=O)CNC(=O)c1cc(Br)ccc1Cl)B1OCCNCCO1 [compound 8d]									6	6	2	4	0	6	6	0	0	6			Female Death [2, 11]: 5; Female Suvival [2, 11]: 1; Male Suvival [2, 12]: 6; Female Death [2, 13]: 0; Male Death [2, 14]: 0; Male Death [2, 15]: 0
CC(C)C[C@H](NC(=O)CNC(=O)c1cc(Cl)ccc1Cl)B1OC(=O)[C@@H](c2ccccc2)O1 [compound 8l, 2-chloro-5-chloro-N-[2-({(1R)-3-methyl-1-[(5R)-4-oxo-5-phenyl-1,3,2-dioxaborolan-2-yl]butyl}amino)-2-oxoethyl]benzamide]	103.30^★★ %	1.791 ± 0.540^★★	63.82^★★ %	1.739 ± 0.783^★★▴	36.37^★★ %	1.451 ± 0.676^★★▴▴	23.24^★★ %	1.127 ± 0.667^★★▴▴	6	6	1	5	0	6	6	0	0	6			Relative tumor proliferation rate T/C(%) ([1]; 18th day): 8.38^★ %; Average tumor relative volume RVT18 ([1]; 18th day): 0.561 ± 0.468^★★▴▴; Tumor weight (g) [1]: 0.560 ± 0.566^★ g; Female Death [2, 11]: 2; Female Suvival [2, 11]: 4; Male Suvival [2, 12]: 6; maximum tolerance dose [2]: 0.001108 mmol/kg; Female Death [2, 13]: 0; Male Death [2, 14]: 0; Male Death [2, 15]: 0
CC(C)C[C@H](NC(=O)CNC(=O)c1cc(Br)ccc1Cl)B1OC(=O)c2ccccc2O1 [drawing 39]																			0.00209	0.00619	
CC(C)C[C@H](NC(=O)CNC(=O)c1cc(Br)ccc1Cl)B1OC(=O)[C@@H](c2ccccc2)O1 [drawing 40]																			0.00275	0.00598	
CC(C)C[C@H](NC(=O)CNC(=O)c1cc(Br)ccc1Cl)B1OCCNCCO1 [drawing 41]																			0.00713	0.00651	
CC(C)C[C@H](NC(=O)CNC(=O)c1cc(Cl)ccc1Br)B1OCCNCCO1 [drawing 42]																			0.00816	0.006	
CC(C)C[C@H](NC(=O)CNC(=O)c1cc(Cl)ccc1Cl)B1OC(=O)[C@@H](c2ccccc2)O1 [drawing 43]																			0.0186	0.0216	

Source: patent publication US11414437B2, “Borate compound, and synthesis method therefor and uses thereof” (CHENGDU ORIGIN BIOTECHNOLOGY LIMITED COMPANY, priority 2017, dated 2022)
